Source: PMC12281424, “A Rac-specific competitive inhibitor of guanine nucleotide binding reduces metastasis in triple-negative breast cancer” (Cell Reports Medicine, 2025)

Assays:
EphA7(h) = EphA7(h) (Homo sapiens, UniProt Q15375); assay: Kinase Profiler; assay type: biochemical
Experimental: (§1) Blood cell counts, kinase profiler, safety screen, bacterial cytotoxicity, Ames, micronucleus assays were performed by the company Eurofins (France). The kinase profiler was performed by the company Eurofins (Discovery, Panlab and Cerep).

WNK3(h) = WNK3(h) (Homo sapiens, UniProt Q9BYP7); assay: Kinase Profiler; assay type: biochemical
Experimental: (§2) The kinase profiler was performed by the company Eurofins (Discovery, Panlab and Cerep).

eEF-2K(h) = eEF-2K(h) (Homo sapiens, UniProt O00418); assay: Kinase Profiler; assay type: biochemical
Experimental: as §2

NIH/3T3 cell adhesion = assay: Cell adhesion assay (xCELLigence impedance); assay type: cell-based; settings: 10^-5 M
Experimental: NIH3T3cells (10000/well) were seeded in a 96 well plate microtiter xCELLigence assay plate (E-Plate) (ACEA Biosciences Inc.) and placed on the Real-time xCELLigence Cell Analyzer (Roche Applied Science) platform at 37°C to measure the “cell index” every 5 min for a period of 6 h. The cell index unit is defined as (Rn − Rb)/15. Rn is the cell electrode impedance of the well when it contains cells. Rb is the background impedance of the well with the media alone.
Supplementary Fig. 3: Example of one pharmacophore model used for virtual screening. (a) The pharmacophore model shown was created based on RAC1 (grey) and NSC23766 (orange) interaction. […] (b) Impact of different screening molecules (10^-5 M) on NIH/3T3 cell adhesion (xCELLingence Real-time cellanalysis, Agilent), migration (CYTOO Mobility plates) and proliferation (xCELLingence Real-time cell analysis, Agilent) .The level of RAC activation is determinedby the detection of RAC-GTP (pull-down assay) in NIH/3T3 cell treated with EGF (10 ng/mL) and the differentmolecules and normalize to the level of RAC activity measuredin the presenceof the reference RAC inhibitor EHT1864.
Supplementary Fig. 4: A41 inhibits RAC-dependent cell functions. (a) Representative records of single NIH/3T3 cell migration on micropatterned fibronectin lines (CYTOO Mobility plates) in the absence (Control)and presenceA41 at 10^-5 M (left panel) and corresponding quantification of migration speed (right panel) (scale bar: 20µm). […] (b) Typical curves showing the cell index representing the adhesion of NIH/3T3 fibroblast (xCELLingence Real-time cell analysis, Agilent) under control condition (Control) and pre-treated with 10 µM A41 or NSC23766 (left panel) and corresponding quantification of cell adhesion speed (right panel). […]

PAR-1Bα(h) = PAR-1Bα(h) (Homo sapiens, UniProt Q7KZI7); assay: Kinase Profiler; assay type: biochemical
Sequence of PAR-1Bα(h) (Q7KZI7 1-725 isoform Q7KZI7-4): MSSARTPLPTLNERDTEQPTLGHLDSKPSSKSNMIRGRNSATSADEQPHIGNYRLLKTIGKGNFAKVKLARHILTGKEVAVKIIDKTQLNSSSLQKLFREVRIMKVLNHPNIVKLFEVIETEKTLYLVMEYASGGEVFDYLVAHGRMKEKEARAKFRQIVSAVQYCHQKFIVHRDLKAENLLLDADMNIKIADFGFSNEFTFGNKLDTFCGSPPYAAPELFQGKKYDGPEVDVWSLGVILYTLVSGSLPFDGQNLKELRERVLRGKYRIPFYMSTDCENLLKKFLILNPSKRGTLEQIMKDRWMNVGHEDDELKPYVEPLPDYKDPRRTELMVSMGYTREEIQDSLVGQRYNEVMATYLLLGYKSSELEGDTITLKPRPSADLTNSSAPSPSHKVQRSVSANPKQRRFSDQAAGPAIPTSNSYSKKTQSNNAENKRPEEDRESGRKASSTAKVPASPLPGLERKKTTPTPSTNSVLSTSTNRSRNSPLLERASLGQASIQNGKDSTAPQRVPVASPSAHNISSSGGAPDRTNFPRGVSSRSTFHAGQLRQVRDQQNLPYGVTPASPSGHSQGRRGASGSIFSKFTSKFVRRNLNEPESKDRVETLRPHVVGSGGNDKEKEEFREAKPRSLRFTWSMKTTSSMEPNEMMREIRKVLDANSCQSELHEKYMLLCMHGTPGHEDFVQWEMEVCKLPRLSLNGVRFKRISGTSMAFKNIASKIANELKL
Experimental: as §2

NEK1(h) = NEK1(h) (Homo sapiens, UniProt Q96PY6); assay: Kinase Profiler; assay type: biochemical
Experimental: as §2

cKit(D816V)(h) = cKit(D816V)(h) (Homo sapiens, UniProt P10721, D816V); assay: Kinase Profiler; assay type: biochemical
Experimental: as §1

PDK1(h) = PDK1(h) (Homo sapiens, UniProt O15530); assay: Kinase Profiler; assay type: biochemical
Sequence of PDK1(h) (O15530 whole entry): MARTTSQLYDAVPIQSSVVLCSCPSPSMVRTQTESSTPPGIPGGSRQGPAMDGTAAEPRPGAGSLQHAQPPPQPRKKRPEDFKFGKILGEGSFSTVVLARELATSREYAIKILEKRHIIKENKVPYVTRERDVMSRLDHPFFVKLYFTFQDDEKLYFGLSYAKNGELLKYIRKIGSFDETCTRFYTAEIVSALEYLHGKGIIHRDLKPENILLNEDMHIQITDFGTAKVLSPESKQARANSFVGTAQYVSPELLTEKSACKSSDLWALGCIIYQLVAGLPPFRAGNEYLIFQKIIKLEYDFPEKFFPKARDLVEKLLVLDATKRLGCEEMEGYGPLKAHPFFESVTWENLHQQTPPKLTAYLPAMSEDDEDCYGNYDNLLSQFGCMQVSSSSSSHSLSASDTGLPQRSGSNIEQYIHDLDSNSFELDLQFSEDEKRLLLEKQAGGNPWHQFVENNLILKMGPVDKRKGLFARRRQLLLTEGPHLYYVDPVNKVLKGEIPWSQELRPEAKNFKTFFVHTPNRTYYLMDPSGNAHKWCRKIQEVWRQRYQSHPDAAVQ
Experimental: as §1

c-RAF(h) = c-RAF(h) (Homo sapiens, UniProt P04049); assay: Kinase Profiler; assay type: biochemical
Experimental: as §2

Rsk1(h) = Rsk1(h) (Homo sapiens, UniProt Q15418); assay: Kinase Profiler; assay type: biochemical
Sequence of Rsk1(h) (Q15418 whole entry): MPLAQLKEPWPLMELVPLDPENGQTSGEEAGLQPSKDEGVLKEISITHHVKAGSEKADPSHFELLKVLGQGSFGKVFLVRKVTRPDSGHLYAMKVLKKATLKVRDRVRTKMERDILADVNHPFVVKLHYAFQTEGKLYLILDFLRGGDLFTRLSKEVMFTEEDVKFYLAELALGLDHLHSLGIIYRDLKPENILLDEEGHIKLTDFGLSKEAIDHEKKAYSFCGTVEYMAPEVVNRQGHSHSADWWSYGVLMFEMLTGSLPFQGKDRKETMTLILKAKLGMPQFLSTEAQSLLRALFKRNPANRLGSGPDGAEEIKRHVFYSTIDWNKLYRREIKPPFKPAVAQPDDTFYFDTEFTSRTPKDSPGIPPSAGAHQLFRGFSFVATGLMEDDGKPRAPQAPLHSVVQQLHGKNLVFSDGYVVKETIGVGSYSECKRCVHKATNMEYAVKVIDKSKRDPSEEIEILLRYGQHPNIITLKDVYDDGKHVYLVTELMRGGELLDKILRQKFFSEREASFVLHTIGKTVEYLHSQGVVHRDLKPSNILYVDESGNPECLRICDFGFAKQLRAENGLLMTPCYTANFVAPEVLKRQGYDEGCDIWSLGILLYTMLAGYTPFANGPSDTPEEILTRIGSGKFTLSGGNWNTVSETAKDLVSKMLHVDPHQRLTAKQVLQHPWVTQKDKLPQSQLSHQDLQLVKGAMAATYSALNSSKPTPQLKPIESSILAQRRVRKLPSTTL
Experimental: as §2

Mnk2(h) = Mnk2(h) (Homo sapiens, UniProt Q9HBH9); assay: Kinase Profiler; assay type: biochemical
Sequence of Mnk2(h) (Q9HBH9 whole entry): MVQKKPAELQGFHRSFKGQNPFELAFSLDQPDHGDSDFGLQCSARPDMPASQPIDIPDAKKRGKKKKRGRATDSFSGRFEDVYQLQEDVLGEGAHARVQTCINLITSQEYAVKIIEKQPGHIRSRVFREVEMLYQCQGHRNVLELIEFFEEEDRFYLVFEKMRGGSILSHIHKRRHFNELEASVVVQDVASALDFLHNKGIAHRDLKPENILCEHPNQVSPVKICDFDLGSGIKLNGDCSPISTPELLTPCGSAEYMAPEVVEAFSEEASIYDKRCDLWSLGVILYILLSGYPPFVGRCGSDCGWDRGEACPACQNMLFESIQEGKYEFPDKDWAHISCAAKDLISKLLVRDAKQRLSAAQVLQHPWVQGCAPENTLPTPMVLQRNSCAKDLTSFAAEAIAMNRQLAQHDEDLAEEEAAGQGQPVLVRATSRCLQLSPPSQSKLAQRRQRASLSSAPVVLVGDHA
Experimental: as §2

LTK(h) = LTK(h) (Homo sapiens, UniProt P29376); assay: Kinase Profiler; assay type: biochemical
Experimental: as §2

EphA3(h) = EphA3(h) (Homo sapiens, UniProt P29320); assay: Kinase Profiler; assay type: biochemical
Experimental: as §1

PDGFRα(V561D)(h) = PDGFRα(V561D)(h) (Homo sapiens, UniProt P16234, V561D); assay: Kinase Profiler; assay type: biochemical
Experimental: as §2

SLK(h) = SLK(h) (Homo sapiens, UniProt Q9H2G2); assay: Kinase Profiler; assay type: biochemical
Sequence of SLK(h) (Q9H2G2 whole entry): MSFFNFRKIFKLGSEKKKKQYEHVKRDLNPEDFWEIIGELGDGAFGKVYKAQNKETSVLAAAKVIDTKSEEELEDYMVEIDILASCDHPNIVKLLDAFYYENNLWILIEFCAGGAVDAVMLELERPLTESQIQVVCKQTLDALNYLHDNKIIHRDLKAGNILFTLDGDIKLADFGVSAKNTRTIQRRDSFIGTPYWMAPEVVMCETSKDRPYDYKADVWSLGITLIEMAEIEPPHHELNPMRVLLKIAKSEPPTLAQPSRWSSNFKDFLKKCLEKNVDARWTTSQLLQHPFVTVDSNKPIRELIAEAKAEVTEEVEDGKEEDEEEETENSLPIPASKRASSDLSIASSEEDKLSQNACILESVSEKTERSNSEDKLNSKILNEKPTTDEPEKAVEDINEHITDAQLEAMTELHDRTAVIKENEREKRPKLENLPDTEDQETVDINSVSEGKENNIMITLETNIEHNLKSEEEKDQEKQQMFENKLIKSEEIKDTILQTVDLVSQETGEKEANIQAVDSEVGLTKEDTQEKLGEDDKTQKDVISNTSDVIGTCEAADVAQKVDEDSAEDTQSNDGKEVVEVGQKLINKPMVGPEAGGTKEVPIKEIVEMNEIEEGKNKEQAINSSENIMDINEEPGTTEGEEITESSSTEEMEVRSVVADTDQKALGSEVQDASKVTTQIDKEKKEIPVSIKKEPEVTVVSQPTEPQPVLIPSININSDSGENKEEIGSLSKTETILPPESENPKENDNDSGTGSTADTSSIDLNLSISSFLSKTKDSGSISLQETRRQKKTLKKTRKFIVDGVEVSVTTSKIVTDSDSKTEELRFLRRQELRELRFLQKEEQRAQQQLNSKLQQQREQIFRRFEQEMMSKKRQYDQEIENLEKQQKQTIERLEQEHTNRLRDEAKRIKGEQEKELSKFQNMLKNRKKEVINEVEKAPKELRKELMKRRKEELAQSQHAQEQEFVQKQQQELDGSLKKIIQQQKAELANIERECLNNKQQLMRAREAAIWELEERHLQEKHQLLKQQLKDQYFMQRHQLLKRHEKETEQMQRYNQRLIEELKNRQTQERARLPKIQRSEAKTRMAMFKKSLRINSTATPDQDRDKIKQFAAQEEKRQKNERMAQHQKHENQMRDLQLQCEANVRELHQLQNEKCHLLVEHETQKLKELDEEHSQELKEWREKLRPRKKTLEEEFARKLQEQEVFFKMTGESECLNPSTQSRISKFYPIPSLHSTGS
Experimental: as §2

Adrenergic α1D = Adrenergic α1D (Homo sapiens, UniProt P25100); assay: Safety screen; assay type: binding
Sequence of Adrenergic α1D (P25100 whole entry): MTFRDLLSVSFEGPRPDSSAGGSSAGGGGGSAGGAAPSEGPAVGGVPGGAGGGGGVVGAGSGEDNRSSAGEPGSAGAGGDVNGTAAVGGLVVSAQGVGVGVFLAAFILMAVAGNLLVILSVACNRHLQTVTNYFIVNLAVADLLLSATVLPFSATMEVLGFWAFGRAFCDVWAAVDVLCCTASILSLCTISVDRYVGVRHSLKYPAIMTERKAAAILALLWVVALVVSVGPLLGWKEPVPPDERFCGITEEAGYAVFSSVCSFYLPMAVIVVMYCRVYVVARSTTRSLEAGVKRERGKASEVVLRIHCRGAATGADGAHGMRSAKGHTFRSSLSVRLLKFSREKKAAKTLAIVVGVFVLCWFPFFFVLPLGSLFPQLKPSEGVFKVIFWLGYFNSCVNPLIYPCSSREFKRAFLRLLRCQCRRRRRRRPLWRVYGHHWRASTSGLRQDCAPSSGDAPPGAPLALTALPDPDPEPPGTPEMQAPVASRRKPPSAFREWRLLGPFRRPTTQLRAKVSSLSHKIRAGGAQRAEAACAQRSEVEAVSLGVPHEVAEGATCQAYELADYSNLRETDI
Experimental: (§3) Blood cell counts, kinase profiler, safety screen, bacterial cytotoxicity, Ames, micronucleus assays were performed by the company Eurofins (France).

SIK3(h) = SIK3(h) (Homo sapiens, UniProt Q9Y2K2); assay: Kinase Profiler; assay type: biochemical
Experimental: as §2

Chemokine CXCR2 (IL-8RB) = Chemokine CXCR2 (IL-8RB) (Homo sapiens, UniProt P25025); assay: Safety screen; assay type: binding
Experimental: as §3

[1] = Ames fluctuation test (7th group); assay type: cell-based
Description: Data S3. Ames-fluctuation assay-A41.
Test Concentration Count Positive Significance Fisher Exact Test

Abl(m) = Abl(m) (Mus musculus, UniProt P00520); assay: Kinase Profiler; assay type: biochemical
Experimental: as §2

Sequence of eEF-2K(h) (O00418 whole entry): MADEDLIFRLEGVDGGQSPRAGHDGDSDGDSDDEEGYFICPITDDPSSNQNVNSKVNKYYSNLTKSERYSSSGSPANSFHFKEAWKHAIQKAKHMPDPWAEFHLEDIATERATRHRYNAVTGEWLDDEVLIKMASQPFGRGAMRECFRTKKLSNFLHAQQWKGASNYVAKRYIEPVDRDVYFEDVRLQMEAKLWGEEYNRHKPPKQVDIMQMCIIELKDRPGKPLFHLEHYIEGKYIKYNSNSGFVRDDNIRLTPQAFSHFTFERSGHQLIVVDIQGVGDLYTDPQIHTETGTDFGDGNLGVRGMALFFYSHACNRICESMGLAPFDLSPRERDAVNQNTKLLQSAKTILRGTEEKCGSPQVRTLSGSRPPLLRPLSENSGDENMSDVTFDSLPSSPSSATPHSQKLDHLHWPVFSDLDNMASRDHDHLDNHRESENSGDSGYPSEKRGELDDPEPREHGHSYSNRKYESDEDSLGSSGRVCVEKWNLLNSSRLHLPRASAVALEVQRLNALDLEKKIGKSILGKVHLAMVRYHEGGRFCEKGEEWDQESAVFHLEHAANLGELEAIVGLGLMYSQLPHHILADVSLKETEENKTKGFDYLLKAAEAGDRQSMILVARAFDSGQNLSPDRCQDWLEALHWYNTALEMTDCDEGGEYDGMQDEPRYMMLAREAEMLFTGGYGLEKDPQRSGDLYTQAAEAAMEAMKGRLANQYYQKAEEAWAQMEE

## COc1ccc(OC)c(NS(=O)(=O)c2ccc(NC(=O)CCSc3ccc(C)cc3)cc2)c1 [Compound A41]
EphA7(h)
  Activity(%): 108%
WNK3(h)
  Activity(%): 101%
eEF-2K(h)
  Activity(%): 97%
NIH/3T3 cell adhesion
  cell adhesion: efficiently inhibited both functions
PAR-1Bα(h)
  Activity(%): 111%
NEK1(h)
  Activity(%): 104%
cKit(D816V)(h)
  Activity(%): 88%
PDK1(h)
  Activity(%): 107%
c-RAF(h)
  Activity(%): 93%
Rsk1(h)
  Activity(%): 122%
Mnk2(h)
  Activity(%): 107%
LTK(h)
  Activity(%): 113%
EphA3(h)
  Activity(%): 139%
PDGFRα(V561D)(h)
  Activity(%): 119%
SLK(h)
  Activity(%): 127%
Adrenergic α1D
  % inh.: 21%
SIK3(h)
  Activity(%): 106%
Chemokine CXCR2 (IL-8RB)
  % inh.: 1%
[1]; 1.0E-04 M
  Count Positive (# of wells): 1
[1]; 1.0E-05 M
  Count Positive (# of wells): 0
[1]; 5.0E-05 M
  Count Positive (# of wells): 0
[1]; 5.0E-06 M
  Count Positive (# of wells): 1
Abl(m)
  Activity(%): 125%
